The term IC50 denotes the concentration that gives 50% inhibition. Usually Kd stands for a measure of binding affinity in units of concentration. A high value points to a looser complex. Broadly, the Km is the concentration of substrate that gives half-maximal velocity.

In article doi:10.1101/2025.10.27.684712v1, “Structure-guided development of a potent human B^0AT1 inhibitor effective in a mouse model of phenylketonuria” (biorxiv, 2025) one finds IC50, Kd and Km data, which are given here for four compounds.

Assay [1] addresses T1, hB^0AT1 (human SLC6A19) co-expressed with human Collectrin (Homo sapiens, UniProt Q695T7).
T1 construct: hSLC6A19-T2A-hCollectrin synthetic construct, wild type, doxycycline-inducible in JTREx-CHO cells; with Collectrin
T1 sequence (Q695T7 1-634): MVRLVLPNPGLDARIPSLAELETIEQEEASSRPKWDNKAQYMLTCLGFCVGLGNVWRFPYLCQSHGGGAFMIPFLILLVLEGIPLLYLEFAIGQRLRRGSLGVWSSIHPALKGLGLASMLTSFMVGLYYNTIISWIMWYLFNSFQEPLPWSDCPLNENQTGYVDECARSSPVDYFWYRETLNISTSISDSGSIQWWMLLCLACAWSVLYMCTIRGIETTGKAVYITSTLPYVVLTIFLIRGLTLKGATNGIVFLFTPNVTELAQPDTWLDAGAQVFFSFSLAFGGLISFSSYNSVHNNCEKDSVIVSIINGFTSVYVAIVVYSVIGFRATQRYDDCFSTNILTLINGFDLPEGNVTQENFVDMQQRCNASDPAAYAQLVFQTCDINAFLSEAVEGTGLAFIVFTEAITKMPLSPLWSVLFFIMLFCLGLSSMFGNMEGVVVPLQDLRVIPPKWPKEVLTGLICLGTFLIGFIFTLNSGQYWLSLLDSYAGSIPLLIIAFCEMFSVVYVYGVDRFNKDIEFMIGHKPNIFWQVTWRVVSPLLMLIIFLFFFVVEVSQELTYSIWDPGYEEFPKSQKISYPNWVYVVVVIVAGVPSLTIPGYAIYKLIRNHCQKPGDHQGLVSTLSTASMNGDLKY
T1 sequence (Q9HBJ8 15-222 partner): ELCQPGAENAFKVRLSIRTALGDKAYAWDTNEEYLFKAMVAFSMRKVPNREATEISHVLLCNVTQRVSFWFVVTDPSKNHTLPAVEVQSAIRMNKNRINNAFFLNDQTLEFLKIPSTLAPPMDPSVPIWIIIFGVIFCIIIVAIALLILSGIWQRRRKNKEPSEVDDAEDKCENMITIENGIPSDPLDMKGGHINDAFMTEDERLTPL
Put plainly: inhibition of d5-phenylalanine uptake, LC-MS/MS. Type of assay: cell-based.

A further assay deals with T2, hB^0AT1-ACE2 complex (Homo sapiens, UniProt Q695T7).
T2 construct: gene SLC6A19; wild type; N-terminal FLAG on B0AT1, Strep-tag after ACE2 signal peptide; FreeStyle 293-F; with Angiotensin-converting enzyme 2
Briefly: binding to crude membranes, filtration and LC-MS/MS.

For assay [2], the target named is T3, mB^0AT1 (mouse SLC6A19) co-expressed with mouse Collectrin (Mus musculus, UniProt Q9D687).
T3 construct: mSLC6A19-T2A-mCollectrin synthetic construct, doxycycline-inducible in JTREx-CHO cells; with Collectrin
T3 sequence (Q9D687 1-634): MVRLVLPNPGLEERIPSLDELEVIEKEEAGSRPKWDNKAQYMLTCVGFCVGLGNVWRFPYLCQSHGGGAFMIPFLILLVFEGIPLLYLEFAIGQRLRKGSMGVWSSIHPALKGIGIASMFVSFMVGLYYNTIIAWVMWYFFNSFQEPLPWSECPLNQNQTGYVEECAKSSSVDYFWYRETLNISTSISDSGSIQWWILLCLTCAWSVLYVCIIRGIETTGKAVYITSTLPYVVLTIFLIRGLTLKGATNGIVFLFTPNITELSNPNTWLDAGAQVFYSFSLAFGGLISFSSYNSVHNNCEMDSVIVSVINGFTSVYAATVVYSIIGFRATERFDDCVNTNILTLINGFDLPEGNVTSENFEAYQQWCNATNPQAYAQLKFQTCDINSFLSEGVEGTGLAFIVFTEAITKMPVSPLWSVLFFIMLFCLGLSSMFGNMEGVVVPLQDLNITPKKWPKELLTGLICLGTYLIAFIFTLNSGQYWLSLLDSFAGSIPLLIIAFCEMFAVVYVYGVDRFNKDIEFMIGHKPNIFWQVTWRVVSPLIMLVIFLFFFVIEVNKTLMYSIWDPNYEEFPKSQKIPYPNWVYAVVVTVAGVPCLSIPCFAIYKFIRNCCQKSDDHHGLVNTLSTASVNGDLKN
T3 sequence (Q9ESG4 15-222 partner): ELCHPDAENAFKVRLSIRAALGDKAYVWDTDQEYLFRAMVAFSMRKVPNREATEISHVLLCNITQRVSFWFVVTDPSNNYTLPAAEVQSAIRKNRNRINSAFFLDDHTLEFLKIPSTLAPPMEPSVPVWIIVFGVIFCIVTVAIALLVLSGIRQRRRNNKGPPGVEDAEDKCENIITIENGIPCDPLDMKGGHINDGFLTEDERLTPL
Briefly: inhibition of d5-phenylalanine uptake, LC-MS/MS. Type of assay: cell-based.

Assay [3] deals with T1, hB^0AT1 (human SLC6A19) co-expressed with human Collectrin. Briefly: d5-phenylalanine uptake kinetics, LC-MS/MS. It is filed as cell-based. The note with it: labelled compound; 100 mM NaCl, pH 7.4, 37 °C, no inhibitor.

T2 sequence (Q9BYF1 18-805 partner, one chain of several): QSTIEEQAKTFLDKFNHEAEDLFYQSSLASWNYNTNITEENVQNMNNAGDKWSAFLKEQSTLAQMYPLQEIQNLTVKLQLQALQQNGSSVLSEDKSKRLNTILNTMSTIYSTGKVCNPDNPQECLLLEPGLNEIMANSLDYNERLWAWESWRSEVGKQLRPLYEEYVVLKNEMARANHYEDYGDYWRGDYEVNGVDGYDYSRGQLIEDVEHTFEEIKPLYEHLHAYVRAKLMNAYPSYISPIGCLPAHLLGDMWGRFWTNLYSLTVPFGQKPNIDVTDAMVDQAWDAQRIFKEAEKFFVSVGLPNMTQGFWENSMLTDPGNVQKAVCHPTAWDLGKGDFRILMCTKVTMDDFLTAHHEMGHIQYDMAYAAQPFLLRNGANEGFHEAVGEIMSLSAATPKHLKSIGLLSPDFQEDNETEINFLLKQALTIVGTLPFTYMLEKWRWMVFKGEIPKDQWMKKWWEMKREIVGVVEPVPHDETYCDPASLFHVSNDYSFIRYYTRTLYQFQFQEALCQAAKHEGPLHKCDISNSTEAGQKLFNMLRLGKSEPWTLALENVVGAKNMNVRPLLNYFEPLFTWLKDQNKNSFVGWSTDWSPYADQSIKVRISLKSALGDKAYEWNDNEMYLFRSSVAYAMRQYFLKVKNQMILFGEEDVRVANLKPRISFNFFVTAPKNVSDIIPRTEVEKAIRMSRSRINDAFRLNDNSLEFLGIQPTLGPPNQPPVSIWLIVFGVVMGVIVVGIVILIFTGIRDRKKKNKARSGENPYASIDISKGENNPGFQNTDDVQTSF

As for `CCNC(=O)/C=C/c1cccc(Br)c1` [compound 1, Cinromide], the figures for the IC50 in assay [1] and in assay [2] were 970 nM and greater than 10000 nM, respectively. Besides, on hB^0AT1-ACE2 complex, the Kd was determined as 472 nM.

For d5-phenylalanine, the Km in assay [3] was determined as 866 ± 144 µM.

`CN(C)C(=O)CNC(=O)/C=C/c1ccc(C(F)(F)F)cc1` [compound 2]: the IC50 was found to be 5500 nM in assay [1] and 1980 nM in assay [2]. For the same compound, binding at hB^0AT1-ACE2 complex was put at a Kd of 140 nM.

Turning to `O=C(/C=C/c1ccc(C(F)(F)F)cc1)NCC(=O)N1CCNC(=O)C1` [compound 3], the IC50 in assay [1] came out at 513 nM; in assay [2] it was 295 nM. The Kd at hB^0AT1-ACE2 complex was 47 nM.
